# System: HBV cccDNA
# Test: HBV cccDNA levels by Hirt extraction and Southern blotting
# Format: cell-based, hepatitis B virus
# Conditions: HBV-infected HepG2-hNTCP-C9 cells, 10 days; 20 μM Juglone or PiB, 30 μM ATRA, 6,7,4′-THIF or KPT-6566, 40 μM EGCG
# Method: Mock-infected HepG2-hNTCP-C9 cells (lane 1) or HBV-infected HepG2-hNTCP-C9 cells (lanes 2–3) were treated with solvent (lane 2) or 20 μM Juglone, 20 μM PiB, 30 μM ATRA, 30 μM 6,7,4′-THIF, 30 μM KPT6566, or 40 μM EGCG (lane 3) for 10 days. HBV cccDNA levels were determined by the Hirt extraction method, as described previously ([Saeed et al., 2019]). Data are presented from three independent experiments.
# HBV cccDNA synthesis was examined using the protein-free Hirt cccDNA extraction method. Briefly, HBV-infected PIN1 or PIN4 KD cells at approximately 100% confluency were incubated for 10 days, lysed with 10 mM EDTA and 10 mM Tris–HCl [pH 7.5] containing 0.6% SDS-TE buffer, treated for 16 h by adding 5 M NaCl to the final concentration of 1 M, and precipitated by centrifugation for 30 min at 14,500 × g. The supernatants were subjected to multiple phenol extractions (two times) followed by cccDNA extraction via phenol/chloroform. The supernatant containing cccDNA was precipitated by ethanol and furthermore analyzed by Southern blotting. The HBV cccDNA ChIP was performed using cccDNA-specific primers and analyzed by PCR (GeneAmp 2,700, Applied Biosystems), as described previously ([Bichko et al., 1985]; [Piracha et al., 2018], [2020]; [Saeed et al., 2019], [2021]). From the clinical specimens, HBV cccDNA levels were examined, as described previously ([Zhang et al., 2017]), using 251F 5′-GAC TYG TGG TGG ACT TCT C-3′ and 1190R 5′-TCA GCA AAY ACT YGG CA-3′ set of primers.
row,Compound,HBV cccDNA levels
1,"O=c1c(-c2ccc(O)cc2)coc2cc(O)c(O)cc12 [6,7,4′-THIF, 6,7-dihydroxy-3-(4-hydroxyphenyl)-4H-chromen-4-one]",without affecting HBV cccDNA levels
2,"CC1=C(/C=C/C(C)=C/C=C/C(C)=C/C(=O)O)C(C)(C)CCC1 [ATRA, All-trans-retinoic acid]",without affecting HBV cccDNA levels
3,"O=C(O[C@@H]1Cc2c(O)cc(O)cc2O[C@@H]1c1cc(O)c(O)c(O)c1)c1cc(O)c(O)c(O)c1 [EGCG, Epigallocatechin gallate]",without affecting HBV cccDNA levels
4,"O=C1C=CC(=O)c2c(O)cccc21 [Juglone, 5-hydroxyl-1,4-naphthoquinone]",without affecting HBV cccDNA levels
5,"CC(C)(C)c1ccc(S(=O)(=O)N=C2C=C(SCC(=O)O)C(=O)c3ccccc32)cc1 [KPT6566, 2-[[4-[[[4-(1,1-dimethylethyl)phenyl]sulfonyl]imino]-1,4-dihydro-1-oxo-2-naphthalenyl]thio] acetic acid]",without affecting HBV cccDNA levels
6,"CCOC(=O)CN1C(=O)c2ccc3c4c(ccc(c24)C1=O)C(=O)N(CC(=O)OCC)C3=O [PiB, 1,3,6,8-tetrahydro-1,3,6,8-tetraoxo-benzo [lmn][3,8] phenanthroline-2,7-diacetic acid, 2,7-diethyl ester]",without affecting HBV cccDNA levels

# From article PMC9905731, “PIN1 and PIN4 inhibition via parvulin impeders Juglone, PiB, ATRA, 6,7,4′-THIF, KPT6566, and EGCG thwarted hepatitis B virus replication” (Frontiers in Microbiology, 2023)
